Results as given in patent publication US6680308B1, “Use of organophosphorus compounds for the therapeutic and prophylactic treatment of infections” (priority 1998, dated 2004).

Key:
Plasmodium vinckeii [1] = assay: Efficacy against malaria in vivo, modified Peters' test, treatment of infected mice
Method: The various derivatives were tested by the modified Peters' test. The substances were applied here in a quarter of the median lethal dose (LD50). In the test batch ten mice were infected with Plasmodium vinckeii, the pathogen of mouse malaria. After confirmation of the infection by blood testing four mice were treated. Six mice, which were not treated, served as a control group. […] The control mice had to be killed on day 5 after infection with parasitaemia of >80%.

Plasmodium vinckeii [2] = assay: Protection from malaria in infected mice, pretreatment one day before infection; assay type: in vivo, mice (BALB/c-strain)
Method: The efficacy of compounds in vivo against malaria was tested using male mice weighing 20 to 25 g (BALB/c-strain). Four mice were treated intraperitoneally with 50 mg/kg 3-(N-formyl-N-hydroxylamino)-propylphosphonic acid monosodium salt one day before infection. The mice were then infected with Plasmodium vinckeii. Mice which were not pretreated with the substance served as a control group.

[3] = test system: Plasmodium falciparum HB3 (Honduras); assay: In vitro cytotoxicity against malaria parasites, [3H]-hypoxanthine insertion, strain HB3; assay type: cell-based; conditions: strain HB3, resistant to pyrimethamine, 48 hours incubation, then 24 hours [3H]-hypoxanthine, read-out: IC50 value (concentration at which the vitality of parasites is reduced by a half)
Method: (§1) On the Principle of IC50 Determination According to Vial et al (the Concentration at Which the Vitality of Parasites is Reduced by a Half)
(§2) To determine the IC50 value according to Vial et al malaria parasites are initially cultivated for a complete 48 hour cycle in the presence of inhibitors, in the subsequent 24 hours the survival rate is measured by [^3H]-hypoxanthine insertion.
(§3) A dilution series of 3-(N-formyl-N-hydroxylamino)-propylphosphonic acid monosodium salt is placed in 20 μl aliquots concentrated by 10 on a microtitre plate. Then 180 μl parasite suspension in culture medium is added to each well. Asynchronous cultures with a parasitaemia of approximately 0.4% and 2% haematocrite are used. The microtitre plates are subsequently incubated for 48 hours. Then 30 μl [^3H]-hypoxanthine are added to each well. After 24 hours of incubation the cells were harvested and the incorporated radioactivity was measured. In FIG. 1 the results with the strains HB3 and Dd2 are shown with known resistances against other malaria pharmaceutical compositions. In both strains there is a IC50 value of approximately 100 μg/l. The resistances of these strains are:
Plasmodium falciparum HB3 (Honduras) is resistant to pyrimethamine.

[4] = test system: Plasmodium falciparum Dd2 (Indo-China); assay: In vitro cytotoxicity against malaria parasites, [3H]-hypoxanthine insertion, strain Dd2; assay type: cell-based; conditions: strain Dd2, resistant to cloroquine, quinine, pyrimethamine, cycloguanil and sulfadoxine, 48 hours incubation, then 24 hours [3H]-hypoxanthine, read-out: IC50 value (concentration at which the vitality of parasites is reduced by a half)
Method: as §1, §2, §3
Plasmodium falciparum Dd2 (Indo-China) is resistant to cloroquine, quinine, pyrimethamine, cycloguanil and sulfadoxine.

## O=CN(O)CCCP(=O)([O-])O.[Na+] [3-(N-formyl-N-hydroxylamino)-propylphosphonic acid monosodium salt]
Plasmodium vinckeii [1]; 50 mg/kg/d, mice with a parasitaemia of 80%, after 1 day
  living parasites after 1 day: free of living parasites
Plasmodium vinckeii [1]; 1,000 mg/kg/d over 3 days, 8 weeks after end of treatment
  parasites 8 weeks after the treatment had stopped: still free from parasites
Plasmodium vinckeii [1]; 1,000 mg/kg/d over 3 days, mice infected with Plasmodium vinckeii
  effect on parasites in the mice's blood: destruction of the parasites
Plasmodium vinckeii [1]; 1,000 mg/kg/d, after just one day
  living parasites in treated group after one day: free of living parasites
Plasmodium vinckeii [2]; 50 mg/kg intraperitoneally one day before infection with Plasmodium vinckeii
  infection in pretreated mice: No infection could be detected
Plasmodium vinckeii [2]; 50 mg/kg intraperitoneally one day before infection, 8 weeks after infection
  parasites 8 weeks after infection: still free of parasites
[3]
  IC50: ~0.1 µg/mL
[4]
  IC50: ~0.1 µg/mL
